From patent EP0729956B1, “Benzothiophene compounds, intermediates, compositions, and methods” (ELI LILLY AND COMPANY, priority 1995, dated 1996)
Where a name gives a salt, the structure may show the parent alone. Read-outs that look alike come from different tables or passages of the source.

Assays:
ovariectomized rats [1] = assay: Serum cholesterol analysis (OVX rat, 4-day dosing); assay type: in vivo, Sprague Dawley rats; settings: Rattus norvegicus, po, 96 h, daily for 4 days, read-out: Serum Cholesterol (% decrease vs. OVX)
Source text: (§1) Seventy-five day old female Sprague Dawley rats (weight range of 200 to 225g) were obtained from Charles River Laboratories (Portage, MI). The animals were either bilaterally ovariectomized (OVX) or exposed to a Sham surgical procedure at Charles River Laboratories, and then shipped after one week. Upon arrival, they were housed in metal hanging cages in groups of 3 or 4 per cage and had ad libitum access to food (calcium content approximately 0.5%) and water for one week. Room temperature was maintained at 22.2° ± 1.7° C with a minimum relative humidity of 40%. The photoperiod in the room was 12 hours light and 12 hours dark.
(§2) After a one week acclimation period (therefore, two weeks post-OVX) daily dosing with test compound was initiated. 17a-ethynyl estradiol or the test compound were given orally, unless otherwise stated, as a suspension in 1% carboxymethylcellulose or dissolved in 20% cyclodextrin. Animals were dosed daily for 4 days. Following the dosing regimen, animals were weighed and anesthetized with a ketamine: Xylazine (2:1, V:V) mixture and a blood sample was collected by cardiac puncture. The animals were then sacrificed by asphyxiation with CO2, the uterus was removed through a midline incision, and a wet uterine weight was determined.
Blood samples were allowed to clot at room temperature for 2 hours, and serum was obtained following centrifugation for 10 minutes at 3000 rpm. Serum cholesterol was determined using a Boehringer Mannheim Diagnostics high performance cholesterol assay. Briefly the cholesterol was oxidized to cholest-4-en-3-one and hydrogen peroxide. The hydrogen peroxide was then reacted with phenol and 4-aminophenazone in the presence of peroxidase to produce a p-quinone imine dye, which was read spectrophotemetrically at 500 nm. Cholesterol concentration was then calculated against a standard curve. The entire assay was automated using a Biomek Automated Workstation.

[2] = test system: MCF-7 breast adenocarcinoma cells; assay: MCF-7 Proliferation Assay (tritiated thymidine); assay type: cell-based; settings: Homo sapiens, MCF7; MCF-7 cells, 48 hours with drug, tritiated thymidine pulse 4 hours
Experimental: MCF-7 breast adenocarcinoma cells (ATCC HTB 22) were maintained in MEM (minimal essential medium, phenol red-free, Sigma, St. Louis, MO) supplimented with 10% fetal bovine serum (FBS) (V/V), L-glutamine (2 mM), sodium pyruvate (1 mM), HEPES {(N-[2-hydroxyethyl]piperazine-N'-[2-ethanesulfonic acid]10 mM}, non-essential amino acids and bovine insulin (1 ug/mL) (maintenance medium). Ten days prior to assay, MCF-7 cells were switched to maintenance medium supplemented with 10% dextran coated charcoal stripped fetal bovine serum (DCC-FBS) assay medium) in place of 10% FBS to deplete internal stores of steroids. MCF-7 cells were removed from maintenance flasks using cell dissociation medium (Ca++/Mg++ free HBSS (phenol red-free) supplemented with 10 mM HEPES and 2 mM EDTA). Cells were washed twice with assay medium and adjusted to 80,000 cells/mL. Approximately […] (8,000 cells) were added to flat-bottom microculture wells (Costar 3596) and incubated at 37° C in a 5% CO2 humidified incubator for 48 hours to allow for cell adherence and equilibration after transfer. Serial dilutions of drugs or DMSO as a diluent control were prepared in assay medium and […] to triplicate microcultures followed by […] assay medium for a final volume of […]. After an additional 48 hours at 37° C in a 5% CO2 humidified incubator, microcultures were pulsed with tritiated thymidine (1 uCi/well) for 4 hours. Cultures were terminated by freezing at -70° C for 24 hours followed by thawing and harvesting of microcultures using a Skatron Semiautomatic Cell Harvester. Samples were counted by liquid scintillation using a Wallac BetaPlace b counter. Results in Table 4 below show the IC50 for certain compounds of the present invention.

ovariectomized rats [3] = test system: ovariectomized rats; parameters: species or system Sprague Dawley rats; settings: rat, in vivo, po
Source text: as §1, §2
Uteri were kept at 4° C until time of enzymatic analysis. The uteri were then homogenized in 50 volumes of 50 mM Tris buffer (pH - 8.0) containing 0.005% Triton X-100. Upon addition of 0.01% hydrogen peroxide and 10 mM O-phenylenediamine (final concentrations) in Tris buffer, increase in absorbance was monitored for one minute at 450 nm. The presence of eosonophils in the uterus is an indication of estrogenic activity of a compound. The maximal velocity of a 15 second interval was determined over the initial, linear portion of the reaction curve.

[4] = test system: ovariectomized test animals; assay: Osteoporosis Test Procedure (OVX rat, 35-day dosing, distal femur metaphysis X-ray image analysis); assay type: in vivo, Sprague Dawley rats; settings: OVX rats, daily for 35 days, mean ± SEM
Source text: as §1
Following the General Preparation Procedure, infra, the rats were treated daily for 35 days (6 rats per treatment group) and sacrificed by carbon dioxide asphyxiation on the 36th day. The 35 day time period was sufficient to allow maximal reduction in bone density, measured as described herein. At the time of sacrifice, the uteri were removed, dissected free of extraneous tissue, and the fluid contents were expelled before determination of wet weight in order to confirm estrogen deficiency associated with complete ovariectomy. […] The uteri were then placed in 10% neutral buffered formalin to allow for subsequent histological analysis.
The right femurs were excised and digitilized x-rays generated and analyzed by an image analysis program (NIH image) at the distal metaphysis. The proximal aspect of the tibiae from these animals were also scanned by quantitative computed tomography.
In accordance with the above procedures, compounds of the present invention and ethynyl estradiol (EE2) in 20% hydroxypropyl b-cyclodextrin were orally administered to test animals. Distal femur metaphysis data presented in Tables 2 and 3 below are the results of formula I compound treatments compared to intact and ovariectomized test animals. Results are reported as the mean ± the standard error of the mean.

IC50 [2] [nM] | Uterine EPO (V. max) (ovariectomized rats [3]; 0.01 mg/kg) | Uterine EPO (V. max) (ovariectomized rats [3]; 0.1 mg/kg) | Uterine EPO (V. max) (ovariectomized rats [3]; 1 mg/kg) | Uterine EPO (V. max) (ovariectomized rats [3]; 10 mg/kg) | SMILES | inhibition in vivo at 0.01 mg/kg (ovariectomized rats [1]) [%] | inhibition in vivo at 0.1 mg/kg (ovariectomized rats [1]) [%] | inhibition in vivo at 1 mg/kg (ovariectomized rats [1]) [%] | inhibition in vivo at 10 mg/kg (ovariectomized rats [1]) [%] | Distal Femur Metaphysis (X-ray Image Analysis-Gray Score) ([4]; Table 3, oral, dose 0.1 mg/kg, OVX control 6.2 ± 1.4, Sham 31.1 ± 6.3) | Distal Femur Metaphysis (X-ray Image Analysis-Gray Score) ([4]; Table 3, oral, dose 1.0 mg/kg, OVX control 6.2 ± 1.4, Sham 31.1 ± 6.3) | Distal Femur Metaphysis (X-ray Image Analysis-Gray Score) ([4]; Table 3, oral, dose 3.0 mg/kg, OVX control 6.2 ± 1.4, Sham 31.1 ± 6.3) | Distal Femur Metaphysis (X-ray Image Analysis-Gray Score) ([4]; Table 2, oral in 20% hydroxypropyl b-cyclodextrin, dose 0.1 mg/kg, OVX control 8.1 ± 1.8, Sham 27.2 ± 6.0) | Distal Femur Metaphysis (X-ray Image Analysis-Gray Score) ([4]; Table 2, oral, dose 1.0 mg/kg, OVX control 8.1 ± 1.8, Sham 27.2 ± 6.0) | Distal Femur Metaphysis (X-ray Image Analysis-Gray Score) ([4]; Table 2, oral, dose 10.0 mg/kg, OVX control 8.1 ± 1.8, Sham 27.2 ± 6.0)
0.05 | 1.2 | 4.8 | 9.3 |  | Oc1ccc(-c2sc3cc(O)ccc3c2Oc2ccc(OCCN3CCCC3)cc2)cc1 [Example 21, [6-Hydroxy-3-[4-[2-(1-pyrolidinyl)ethoxy]phenoxy]-2-(4-hydroxyphenyl)]benzo[b]thiophene] | 26.8 | 47.5 | 54.4 |  |  |  |  |  |  | 
0.08 | 3.3 | 84.3 | 150.6 |  | CCN(CC)CCOc1ccc(Oc2c(-c3ccc(O)cc3)sc3cc(O)ccc23)cc1 [Example 23, [6-Hydroxy-3-[4-[2-(1-N,N-diethylamino)ethoxy]phenoxy]-2-(4-hydroxyphenyl)]benzo[b]thiophene] | 36.2 | 47.2 | 66.1 |  |  |  |  |  |  | 
0.28 |  | 0.9 | 1.3 | 4.8 | Oc1ccc(-c2sc3cc(O)ccc3c2Sc2ccc(OCCN3CCCCC3)cc2)cc1 [Example 53, [6-Hydroxy-3-[4-[2-(1-piperidinyl)ethoxy]-thiophenoxy]-2-(4-hydroxyphenyl)]benzo[b]thiophene] |  | 62.7 | 57.5 | 58.7 |  |  |  |  |  | 

More lines, now with the values behind:

SMILES | IC50 [2] [nM] | Uterine EPO (V. max) (ovariectomized rats [3]; 0.01 mg/kg) | Uterine EPO (V. max) (ovariectomized rats [3]; 0.1 mg/kg) | Uterine EPO (V. max) (ovariectomized rats [3]; 1 mg/kg) | Uterine EPO (V. max) (ovariectomized rats [3]; 10 mg/kg) | inhibition in vivo at 0.01 mg/kg (ovariectomized rats [1]) [%] | inhibition in vivo at 0.1 mg/kg (ovariectomized rats [1]) [%] | inhibition in vivo at 1 mg/kg (ovariectomized rats [1]) [%] | inhibition in vivo at 10 mg/kg (ovariectomized rats [1]) [%] | Distal Femur Metaphysis (X-ray Image Analysis-Gray Score) ([4]; Table 3, oral, dose 0.1 mg/kg, OVX control 6.2 ± 1.4, Sham 31.1 ± 6.3) | Distal Femur Metaphysis (X-ray Image Analysis-Gray Score) ([4]; Table 3, oral, dose 1.0 mg/kg, OVX control 6.2 ± 1.4, Sham 31.1 ± 6.3) | Distal Femur Metaphysis (X-ray Image Analysis-Gray Score) ([4]; Table 3, oral, dose 3.0 mg/kg, OVX control 6.2 ± 1.4, Sham 31.1 ± 6.3) | Distal Femur Metaphysis (X-ray Image Analysis-Gray Score) ([4]; Table 2, oral in 20% hydroxypropyl b-cyclodextrin, dose 0.1 mg/kg, OVX control 8.1 ± 1.8, Sham 27.2 ± 6.0) | Distal Femur Metaphysis (X-ray Image Analysis-Gray Score) ([4]; Table 2, oral, dose 1.0 mg/kg, OVX control 8.1 ± 1.8, Sham 27.2 ± 6.0) | Distal Femur Metaphysis (X-ray Image Analysis-Gray Score) ([4]; Table 2, oral, dose 10.0 mg/kg, OVX control 8.1 ± 1.8, Sham 27.2 ± 6.0)
Oc1ccc(-c2sc3ccccc3c2Oc2ccc(OCCN3CCCC3)cc2)cc1 [Example 3, [3-[4-[2-(1-pyrolidinyl)ethoxy]phenoxy]-2-(4-hydroxyphenyl)]benzo[b]thiophene] | 4 | 1.8 | 4.8 | 5.4 |  | 50.6 | 47.8 | 49.2 |  |  |  |  |  |  | 
COc1ccc(-c2sc3cc(OC)ccc3c2Oc2ccc(OCCN3CCCCC3)cc2)cc1 [Example 10, [6-methoxy-3-[4-[2-(1-piperidinyl)ethoxy]-phenoxy]-2-(4-methoxyphenyl)]benzo[b]thiophene] | 2 |  | 12.0 | 17.7 | 4.8 |  | 50.2 | 59 | 38.9 | 15.3 ± 3.0 | 15.2 ± 3.7 | 18.5 ± 3.2∗ |  |  | 
Oc1ccc(-c2sc3cc(O)ccc3c2Oc2ccc(OCCN3CCCCC3)cc2)cc1 [Example 19, [6-hydroxy-3-[4-[2-(1-piperidinyl)-ethoxy]phenoxy]-2-(4-hydroxyphenyl)]benzo[b]thiophene oxalate] | 0.028 | 2.1 | 2.4 | 3.6 |  | 25.1 | 45.3 | 53.6 |  |  |  |  | 14.7 ± 1.9 | 15.0 ± 3.5∗ | 15.3 ± 4.0∗
